Structures can show the parent of a compound that is named as a salt.
Tested on: PC12 cells
Test: Measurements of cGMP in rat PC12 cell line (intracellular cGMP formation, enzyme immunoassay)
Format: cell-based
Settings: for EC50: PC-12, 0.75 h
Method: Measurements of CGMP in Rat PC12 Cell Line.
cGMP contributes to the function and interaction of several vascular cell types and its dysfunction is involved in major cardiovascular diseases such as hypertension, diabetic complications, atherosclerosis, and tissue infarction. Therefore the extent of cGMP formation elicited by the compounds of the inventions was evaluated in the rat pheochromocytoma (PC12) cell line.
Cells were maintained at 37° C. in DMEM medium enriched with 10% horse serum and 5% foetal bovine serum under 5% CO2 atmosphere. At the time of experiments the cells were washed once with Hank's Balanced Salt Solution (HBSS) supplemented with 0.05% ascorbic acid and preincubated in the same buffer for 10 min in a floating water bath. After the preincubation step, cells were exposed for additional 45 min to either control conditions or increasing concentrations of test compounds ranging from 0.1 to 25 μM, in the presence of the phosphodiesterase inhibitor, IBMX (100 μM) and the NO-independent activator of soluble guanylyl cyclase, YC-1 (20 μM). The reaction was terminated by the removal of the incubating buffer and consecutive addition of 100 μl of absolute ethanol. The organic extracts were then evaporated to dryness and the residues dissolved in aqueous buffer for quantitative determination of intracellular cGMP levels using the cGMP enzyme immunoassay kit.
The obtained results reported in Table 1 are expressed as EC50 (μM) and efficacy Emax (% of vehicle). As shown in the table the nitroderivatives of timolol elicited consistent increase of intracellular cGMP formation in PC12 cell line.

[1] = 45 min exposure, 0.1 to 25 μM, in the presence of IBMX (100 μM) and YC-1 (20 μM)

Structure (SMILES) | Emax (% of vehicle), cGMP formation in PC12 cells [1] | EC50 [1] | EC50, cGMP formation in PC12 cells [1] | increase of intracellular cGMP formation in PC12 cell line (in words) (summary statement to Table 1)
CC(C)(C)NCC(COc1nsnc1N1CCOCC1)OC(=O)c1ccc(CO[N+](=O)[O-])cc1.O=C(O)/C=C\C(=O)O [Compound of example 1, 4-(Nitrooxymethyl)benzoic acid (S)-1-[(1,1-dimethylethyl)amino]-3-[[4-(4-morpholinyl)-1,2,5thiadiazol-3-yl]oxy]-2-propanoate maleate salt] | 796 % of vehicle |  |  | 
CC(C)(C)NC[C@@H](COc1nsnc1N1CCOCC1)OC(=O)c1ccc(CO[N+](=O)[O-])cc1 [Compound of example 1, 4-(Nitrooxymethyl)benzoic acid (S)-1-[(1,1-dimethylethyl)amino]-3-[[4-(4-morpholinyl)-1,2,5thiadiazol-3-yl]oxy]-2-propanoate maleate salt] |  | 12.6 µM |  | 
CC(C)(C)N(CC(COc1nsnc1N1CCOCC1)OC(=O)c1ccc(CO[N+](=O)[O-])cc1)C(=O)c1ccc(CO[N+](=O)[O-])cc1 [Compound of example 2, 4-(Nitrooxymethyl)benzoic acid (S)-1-[(1,1-dimethylethyl)[(4-nitrooxymethyl)benzoyl]amino]-3-[[4-(4-morpholinyl)-1,2,5-thiadiazol-3-yl]oxy]-2-propanoate] | 480 % of vehicle | 1.3 µM |  | 
CC(C)(C)N(C[C@H](O)COc1nsnc1N1CCOCC1)C(=O)c1ccc(CO[N+](=O)[O-])cc1 [Compound of example 3, (S)-1-[(1,1-dimethylethyl)[(4-nitrooxymethyl)benzoyl]amino]-3-[[4-(4-morpholinyl)-1,2,5-thiadiazol-3-yl]oxy]-2-propanol] | 866 % of vehicle | 18.5 µM |  | 
CC(C)(C)NC[C@H](O)COc1nsnc1N1CCOCC1 [Timolol, reference compound] | Not effective |  | Not effective | this effect was not shared

Source: patent publication US20070060586A1, “Nitrooxyderivatives of antihypertensive drugs” (priority 2003, published 2007)
